# Data from paper PMC5882164, “A novel calcimimetic agent, evocalcet (MT-4580/KHK7580), suppresses the parathyroid cell function with little effect on the gastrointestinal tract or CYP isozymes in vivo and in vitro” (PLoS ONE, 2018).
# Target: T1, CYP1A2 (Homo sapiens, UniProt P05177)
# T1 sequence (P05177 1-516): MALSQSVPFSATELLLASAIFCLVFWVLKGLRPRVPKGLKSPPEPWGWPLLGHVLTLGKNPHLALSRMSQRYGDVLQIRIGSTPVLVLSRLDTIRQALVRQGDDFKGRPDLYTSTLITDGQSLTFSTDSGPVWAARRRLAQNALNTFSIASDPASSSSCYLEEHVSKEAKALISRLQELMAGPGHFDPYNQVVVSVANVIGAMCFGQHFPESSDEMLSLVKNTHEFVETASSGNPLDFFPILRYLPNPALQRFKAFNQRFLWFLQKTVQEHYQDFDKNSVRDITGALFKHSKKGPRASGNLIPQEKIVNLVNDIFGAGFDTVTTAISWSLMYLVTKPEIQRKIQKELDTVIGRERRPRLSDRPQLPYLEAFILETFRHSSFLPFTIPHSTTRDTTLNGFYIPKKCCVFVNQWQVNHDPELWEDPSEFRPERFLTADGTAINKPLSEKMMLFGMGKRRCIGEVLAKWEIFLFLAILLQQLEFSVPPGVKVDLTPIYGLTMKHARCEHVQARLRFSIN
# Assay: CYP inhibition assay in human liver microsomes
# Assay type: in vitro ADME
# Details: no pre-incubation, read-out: IC50 direct inhibition of CYP1A2
# Procedure: Each CYP substrate was incubated with human liver microsomes in the absence or presence of evocalcet, and the inhibition of evocalcet for each CYP isozyme was measured.
smiles,measurement,value
C[C@@H](N[C@H]1CCN(c2ccc(CC(=O)O)cc2)C1)c1cccc2ccccc12 [evocalcet],IC50,> 50 µM
